# Where a name gives a salt, the structure may show the parent alone.
# What was measured:
# [1] = test system: females with military-related PTSD; conditions: 5.6 mg dose (N=8) vs placebo (N=16), 12 weeks
# Protocol: (§1) Methods: In this 12-week, multicenter, adaptive design, randomized controlled fixed-dose trial, 5.6 mg cyclobenzaprine-HCl (2×2.8 mg sublingual tablets, comprising a 75%±2% cyclobenzaprine-HCl and 25%±2% mannitol eutectic and a potassium phosphate dibasic anhydrous basifying agent) taken daily at bedtime was compared to placebo for the treatment of PTSD at 45 U.S. sites. […] A pre-planned interim analysis was conducted when about half the originally planned sample of 550 participants had outcome data.
# (§2) The modified intention-to-treat (mITT) population, which included all randomized subjects with at least one post-baseline CAPS-5, included 125 participants treated with 5.6 mg dose per day the above cyclobenzaprine-HCl sublingual formulation and 127 participants on placebo were studied.
# Sexual functioning was measured by Changes in Sexual Functioning Questionnaire short-form (CSFQ-14) which is a validated 14-item measure (Keller, McGarvey, Clayton, 2006). Parallel gender-specific versions are administered to males (CSFQ-14-M) and females (CSFQ-14-F), and each sex was analyzed separately. In addition to a total sexual functioning score, there are five sub-scales: desire/frequency, desire/interest, arousal/excitement, orgasm/complete, and pleasure. The scales range from (never) to (every day) and higher scores reflect greater levels of sexual functioning.
# (§3) In the Phase 3 study in predominantly civilian PTSD, the inclusion criteria were broadened to include civilian participants with current PTSD, as determined by the CAPS-5. Accordingly, this study included 94% civilian trauma with a minimum baseline severity score of >33 on the CAPS-5. […] Thus, analyses were conducted on the interim analysis sample of 252 participants in the military Phase 3 study (89% male [n=225 M; n=27 F]; 100% military PTSD) and […] subjects in the civilian Phase 3 study (79% female [n=129 F; n=34 M]; 94% civilian PTSD).
# (§4) The CSFQ-14 is a validated 14-item measure (Keller, McGarvey, Clayton, 2006) that has male and female versions which were analyzed separately. In addition to a total sexual functioning score, there are five sub-scales: desire/frequency, desire/interest, arousal/excitement, orgasm/complete, and pleasure. The items range on 5-point Likert scale from (never) to (every day). Higher scores reflect greater levels of sexual functioning.
# [2] = test system: females with military-related PTSD; conditions: female subgroup (10 active, 17 placebo), 5.6 mg per day sublingual, after 12 weeks of treatment
# Protocol: as §1, §2
# [3] = test system: participants with military-related PTSD
# Protocol: as §1, §2
# [4] = test system: females with predominantly civilian PTSD; conditions: female completers, 5.6 mg dose (N=58) vs placebo (N=55), 12 weeks
# Protocol: (§5) Three randomized, placebo-controlled and double-blind clinical trials of the above described 5.6 mg cyclobenzaprine-HCl sublingual formulation (2×2.8 mg tablets) were performed, a Phase 2 study and a Phase 3 study in military-related PTSD, and a Phase 3 study in predominantly civilian PTSD. […] The present retrospective analysis examined the activity of the cyclobenzaprine-HCl sublingual formulation on the Changes in Sexual Functioning Questionnaire short form (CSFQ-14) in the two Phase 3 studies.
# as §3, §4
# participants with PTSD [5] = conditions: 5.6 mg sublingual dose, both Phase 3 studies
# Protocol: as §5, §3
# participants with PTSD [6] = conditions: 5.6 mg dose, all three trials (Phase 2 and two Phase 3)
# Protocol: as §5
# [7] = test system: participants with military-related PTSD; conditions: Phase 2 study, drug and placebo groups
# Protocol: as §5
# [8] = 5.6 mg sublingual daily, military Phase 3 study
smiles,measurement,setting,value
CN(C)CCC=C1c2ccccc2C=Cc2ccccc21 [cyclobenzaprine-HCl],"CSFQ-14-F arousal/excitement subscale, Hedges' g effect size vs placebo",[1],0.55
same,"CSFQ-14-F desire/frequency subscale, Hedges' g effect size vs placebo",[1],0.46
same,"CSFQ-14-F desire/interest subscale, Hedges' g effect size vs placebo",[1],0.63
same,"CSFQ-14-F orgasm/completion scale, effect vs placebo",[1],No effect
same,"CSFQ-14-F pleasure subscale, Hedges' g effect size vs placebo",[1],0.54
same,"CSFQ-14-F total score, Hedges' g effect size vs placebo",[1],0.49
same,observed mean improvement in CAPS-5 over placebo,[2],−9.1 units
same,participants with at least one AE leading to study discontinuation,"[3]; 5.6 mg dose group, military Phase 3 study (placebo: two)",8 participants
same,"duration of oral hypoaesthesia (tongue/mouth numbness), the most frequent AE, post administration","[3]; 5.6 mg sublingual daily at bedtime, military Phase 3 study, generally transient",< 60 min
same,severity of oral hypoaesthesia (most frequent AE),[3]; [8],never rated as severe
same,severity of somnolence (most common systemic AE),[3]; [8],never rated as severe
same,"CSFQ-14-F arousal/excitement subscale, Hedges' g effect size vs placebo",[4],0.33
same,"CSFQ-14-F desire/frequency subscale, Hedges' g effect size vs placebo",[4],0.21
same,"CSFQ-14-F desire/interest subscale, Hedges' g effect size vs placebo",[4],0.23
same,"CSFQ-14-F orgasm/completion subscale, Hedges' g effect size vs placebo",[4],0.29
same,"CSFQ-14-F pleasure subscale, Hedges' g effect size vs placebo",[4],0.19
same,"CSFQ-14-F total score, Hedges' g effect size vs placebo",[4]; p=0.07,0.37
same,severity of oral hypoaesthesia (most frequent AE),participants with PTSD [5],never rated as severe
same,severity of somnolence (most common systemic AE),participants with PTSD [5],never rated as severe
same,"duration of oral hypoaesthesia (tongue/mouth numbness), the most frequent AE, post administration",participants with PTSD [5]; generally transient,< 60 min
same,activity on clinician- and patient-rated global PTSD symptoms (CGI and PGIC),participants with PTSD [6],encouraging activity
same,rates of adverse events related to sexual function,[7],very low rates
